In series [1] the target is T1, Integrin alpha-4/beta-7 (Homo sapiens, UniProt P13612+P26010).
T1 sequence (P13612 whole entry): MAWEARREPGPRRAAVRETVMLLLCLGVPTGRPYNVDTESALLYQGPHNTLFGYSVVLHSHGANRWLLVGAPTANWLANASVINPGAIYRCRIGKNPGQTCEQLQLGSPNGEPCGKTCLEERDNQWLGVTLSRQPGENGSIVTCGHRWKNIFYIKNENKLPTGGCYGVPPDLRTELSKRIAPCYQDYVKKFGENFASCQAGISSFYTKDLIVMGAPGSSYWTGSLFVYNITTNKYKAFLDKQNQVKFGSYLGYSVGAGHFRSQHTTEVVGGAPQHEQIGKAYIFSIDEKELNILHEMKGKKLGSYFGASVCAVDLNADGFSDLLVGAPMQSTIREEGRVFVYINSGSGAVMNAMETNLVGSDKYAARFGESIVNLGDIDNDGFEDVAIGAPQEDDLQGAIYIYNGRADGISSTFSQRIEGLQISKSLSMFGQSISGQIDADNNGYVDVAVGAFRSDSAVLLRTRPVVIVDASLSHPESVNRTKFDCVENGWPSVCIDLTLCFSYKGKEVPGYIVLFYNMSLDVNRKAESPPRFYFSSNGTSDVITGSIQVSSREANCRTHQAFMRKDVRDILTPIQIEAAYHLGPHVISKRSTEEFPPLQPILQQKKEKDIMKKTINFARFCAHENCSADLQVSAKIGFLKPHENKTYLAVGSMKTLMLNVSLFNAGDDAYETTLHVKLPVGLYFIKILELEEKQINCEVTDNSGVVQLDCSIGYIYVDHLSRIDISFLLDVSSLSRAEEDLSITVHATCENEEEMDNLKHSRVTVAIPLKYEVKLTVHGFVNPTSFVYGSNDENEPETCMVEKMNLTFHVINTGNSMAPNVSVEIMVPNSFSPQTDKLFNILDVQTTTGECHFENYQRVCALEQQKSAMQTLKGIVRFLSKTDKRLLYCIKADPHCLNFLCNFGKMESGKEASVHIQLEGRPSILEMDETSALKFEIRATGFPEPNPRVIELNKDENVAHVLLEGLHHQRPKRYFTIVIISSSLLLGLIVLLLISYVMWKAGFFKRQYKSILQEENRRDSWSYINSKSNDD
T1 sequence (P26010 whole entry): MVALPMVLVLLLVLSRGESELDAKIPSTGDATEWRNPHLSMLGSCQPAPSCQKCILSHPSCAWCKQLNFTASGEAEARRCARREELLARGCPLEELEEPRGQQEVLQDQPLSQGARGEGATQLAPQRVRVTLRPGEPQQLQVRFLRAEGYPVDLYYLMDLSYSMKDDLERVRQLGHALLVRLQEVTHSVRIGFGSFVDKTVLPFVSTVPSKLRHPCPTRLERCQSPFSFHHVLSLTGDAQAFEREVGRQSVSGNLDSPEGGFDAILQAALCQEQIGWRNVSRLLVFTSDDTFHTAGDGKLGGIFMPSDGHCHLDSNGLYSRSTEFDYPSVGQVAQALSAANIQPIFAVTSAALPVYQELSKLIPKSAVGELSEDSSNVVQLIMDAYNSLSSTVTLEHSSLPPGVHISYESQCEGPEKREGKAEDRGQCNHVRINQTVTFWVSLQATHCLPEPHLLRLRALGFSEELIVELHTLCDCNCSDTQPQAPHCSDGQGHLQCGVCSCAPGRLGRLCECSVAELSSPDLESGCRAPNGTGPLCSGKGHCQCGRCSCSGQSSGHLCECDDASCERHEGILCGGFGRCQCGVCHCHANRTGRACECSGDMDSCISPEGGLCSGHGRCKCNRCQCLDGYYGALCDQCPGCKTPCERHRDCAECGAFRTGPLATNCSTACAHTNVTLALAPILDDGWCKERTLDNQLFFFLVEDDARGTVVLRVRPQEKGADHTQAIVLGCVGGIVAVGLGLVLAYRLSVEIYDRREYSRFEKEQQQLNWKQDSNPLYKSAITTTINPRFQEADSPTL
The series is described as follows: Inhibitory activity of compound against alpha4-beta7 integrin using MAdCAM-Ig ligand. In kind it is protein-complex assay.

A short description of series [2]: Plasma clearance of compound in rats was evaluated. In kind it is ADME, organism-based. The note with it: rat, read-out: Clp.
Series [3] can be described thus: Partition coefficient (logD). In kind it is physicochemical. Particulars: octanol/water.
Series [4] can be described thus: Bioavailability in rat (dose 1 mg/kg i.v. and 2 mg/kg p.o.). In kind it is ADME, organism-based. The note with it: in vivo, po.
A short description of series [5]: Inhibitory activity of compound against very late antigen 4 using VCAM-Ig ligand. On the set-up: species or system Rattus norvegicus.
The nature of series [6]: Dissociation constant was evaluated. In kind it is physicochemical.
Series [7] addresses Integrin alpha-4/beta-1 (Homo sapiens) (UniProt P05556+P13612). The series is described as follows: Inhibition of VCAM-Ig binding to very late activating antigen-4 (VLA-4) at 10 uM. In kind it is protein-complex assay.

These results are taken from ChEMBL document CHEMBL1148235, “Amidines as amide bond replacements in VLA-4 antagonists” (Bioorg Med Chem Lett, 2004).

By IC50 is commonly meant the point on the concentration scale where inhibition reaches its midpoint. A low value points to higher potency. A word on the logD: it is lipophilicity at a set pH, counting ionised and neutral species. The bioavailability is the share of a dose that reaches the circulation, judged against a reference dose that is usually intravenous. Usually pKa stands for the negative logarithm of the acid dissociation constant. Read a high pKa as a weaker acid or stronger base. For orientation: inhibition means how much of the control response was suppressed. Lower therefore signals a response near the control.

Consider `COc1cccc(OC)c1-c1ccc(C[C@H](/N=C(\NCC(F)(F)F)[C@@H]2CCN2S(=O)(=O)c2ccccc2)C(=O)O)cc1`, for which the figures for the IC50 in series [1] and in series [5] were 27 nM and 0.13 nM, respectively. Also, the clearance in series [2] came to 45 mL/min/kg. Also, in series [3], the pH-dependent lipophilicity (logD) amounted to 3.3. The compound further displayed a bioavailability in series [4] of 1.8%.
The like results for `COc1cccc(OC)c1-c1ccc(C[C@H](/N=C(\NCC(C)(C)C)[C@@H]2CCN2S(=O)(=O)c2ccccc2)C(=O)O)cc1` were, in that order, 120 nM, 0.21 nM, 64 mL/min/kg, 3.7 and 0%.
On to `CN/C(=N\[C@@H](Cc1ccc(-c2c(OC)cccc2OC)cc1)C(=O)O)[C@@H]1CCN1S(=O)(=O)c1cc(Cl)cc(Cl)c1`, for which the IC50 in series [1] is 21 nM; in series [5], 0.05 nM. The same compound registered a pKa in series [6] of 10.2. The clearance in series [2] was 85 mL/min/kg. The compound further gave a logD in series [3] of 2.7. This compound gave a bioavailability in series [4] of 0.8%.
Consider `COc1cccc(OC)c1-c1ccc(C[C@H](NC[C@@H]2CCCN2S(=O)(=O)c2cc(Cl)cc(Cl)c2)C(=O)O)cc1`, for which the half-maximal inhibitory concentration (IC50) was determined as 8400 nM in series [1] and 140 nM in series [5].
Consider `COc1cccc(OC)c1-c1ccc(C[C@H](/N=C(\NCC(=O)O)[C@@H]2CCN2S(=O)(=O)c2ccccc2)C(=O)O)cc1`, for which the IC50 in series [1] was 78 nM; in series [5], 0.17 nM. For the same compound, in series [3], the log distribution coefficient (logD) worked out at 1.9.
The compound `COc1cccc(OC)c1-c1ccc(C[C@@H](C(=O)O)N(C)C(=O)[C@@H]2CCN2S(=O)(=O)c2cc(Cl)cc(Cl)c2)cc1` displayed an IC50 in series [5] of 350 nM.
The compound `COc1cccc(OC)c1-c1ccc(C[C@@H]2/N=C(/[C@@H]3CCN3S(=O)(=O)c3ccccc3)NCc3nccn3C2=O)cc1` yielded an IC50 in series [1] of 4090 nM. The clearance in series [2] is 382 mL/min/kg. This compound also had a bioavailability in series [4] of 0.6%. In series [7], this compound yielded an inhibition of 85%.
In the case of `CN/C(=N\[C@@H](Cc1ccc(-c2c(OC)cccc2OC)cc1)C(=O)O)[C@@H]1CCN1S(=O)(=O)c1ccccc1`, the IC50 is 40 nM in series [1] and 0.12 nM in series [5]. This compound also displayed a pKa in series [6] of 10.5. In addition, the clearance in series [2] was 81 mL/min/kg. The same compound yielded a pH-dependent lipophilicity (logD) in series [3] of 2.4. In series [4], the bioavailability came out at 0.7%.
As for `COc1cccc(OC)c1-c1ccc(C[C@H](/N=C(\NCC2CCOOCC2)[C@@H]2CCN2S(=O)(=O)c2ccccc2)C(=O)O)cc1`, the IC50 in series [1] came out at 43 nM; in series [5], 0.28 nM. The clearance in series [2] turned out to be 67 mL/min/kg. For the same compound, the logD in series [3] is 2.6. The bioavailability in series [4] was 0.6%.
With `COc1cccc(OC)c1-c1ccc(C[C@H](OC(=O)[C@@H]2CCN2S(=O)(=O)c2cc(Cl)cc(Cl)c2)C(=O)O)cc1`, the values for the IC50 in series [1] and in series [5] were 3000 nM and 15 nM, respectively.
In the case of `COc1cccc(OC)c1-c1ccc(C[C@H](/N=C(\N)[C@@H]2CCN2S(=O)(=O)c2ccccc2)C(=O)O)cc1`, the IC50 in series [1] was 19 nM; in series [5], 0.1 nM. In series [2], the clearance came out at 61 mL/min/kg. Besides, the bioavailability in series [4] was 0.2%.
In the case of `COc1cccc(OC)c1-c1ccc(C[C@H](/N=C(\NO)[C@@H]2CCN2S(=O)(=O)c2ccccc2)C(=O)O)cc1`, the values for the half-inhibitory concentration (IC50) in series [1] and in series [5] were 98 nM and 0.14 nM, respectively. For the same compound, the log distribution coefficient (logD) in series [3] was determined as 2.3.
With `COc1cccc(OC)c1-c1ccc(C[C@H](/N=C(\N)[C@@H]2CCN2S(=O)(=O)c2cc(Cl)cc(Cl)c2)C(=O)O)cc1`, the half-inhibitory concentration (IC50) was 16 nM in series [1] and 0.05 nM in series [5]. Besides, in series [2], the clearance worked out at 90 mL/min/kg. Also, in series [3], the log distribution coefficient (logD) is 4.1. For the same compound, the bioavailability in series [4] was 0.3%.
As for `CON/C(=N\[C@@H](Cc1ccc(-c2c(OC)cccc2OC)cc1)C(=O)O)[C@@H]1CCN1S(=O)(=O)c1ccccc1`, the IC50 in series [1] came out at 35 nM; in series [5], 0.17 nM. The pKa in series [6] was less than 4. Moreover, the clearance in series [2] stood at 79 mL/min/kg. This compound showed a logD in series [3] of 2.8. This compound gave a bioavailability in series [4] of 9.3%.
For `COCCN/C(=N\[C@@H](Cc1ccc(-c2c(OC)cccc2OC)cc1)C(=O)O)[C@@H]1CCN1S(=O)(=O)c1ccccc1`, the IC50 in series [1] is 65 nM; in series [5], 0.28 nM. Also, the clearance in series [2] was found to be 81 mL/min/kg. In addition, the bioavailability in series [4] worked out at 0%.
As to `COc1cccc(OC)c1-c1ccc(C[C@H](/N=C(\NS(C)(=O)=O)[C@@H]2CCN2S(=O)(=O)c2ccccc2)C(=O)O)cc1`, the results for the concentration for half-maximal inhibition (IC50) in series [1] and in series [5] were 2.2 nM and 0.07 nM, respectively. Also, the pKa in series [6] is -2. In addition, in series [2], the clearance worked out at 103 mL/min/kg. The compound also yielded a pH-dependent lipophilicity (logD) in series [3] of 2.4. In series [4], the bioavailability was found to be 1.6%.
For `COc1cccc(OC)c1-c1ccc(C[C@H](/N=C(\NC#N)[C@@H]2CCN2S(=O)(=O)c2ccccc2)C(=O)O)cc1`, the IC50 in series [1] was 4.1 nM; in series [5], 0.09 nM. The pKa in series [6] was -2. Further, in series [2], the clearance worked out at 93 mL/min/kg. Also, in series [3], the log distribution coefficient (logD) worked out at 2.5. In series [4], the bioavailability is 3%.
Turning to `COc1cccc(OC)c1-c1ccc(C[C@H](NC(=O)[C@]2(C)CCN2S(=O)(=O)c2cc(Cl)cc(Cl)c2)C(=O)O)cc1`, the clearance in series [2] came out at 110 mL/min/kg. Besides, the half-maximal inhibitory concentration (IC50) in series [5] is 0.07 nM.
Consider `COc1cccc(OC)c1-c1ccc(C[C@H](NC(=O)[C@@H]2CCN2S(=O)(=O)c2ccccc2)C(=O)O)cc1`, for which the half-inhibitory concentration (IC50) in series [1] stood at 78 nM; in series [5], 0.1 nM. Moreover, the clearance in series [2] was 107 mL/min/kg. Besides, in series [3], the logD turned out to be 2.6. Moreover, the bioavailability in series [4] turned out to be 1.4%.
On to `COc1cccc(OC)c1-c1ccc(C[C@H](NC(=O)[C@@H]2CCN2S(=O)(=O)c2cc(Cl)cc(Cl)c2)C(=O)O)cc1`, for which the clearance in series [2] was determined as 102 mL/min/kg. In series [3], the logD is 4. In addition, the 50% inhibitory concentration (IC50) in series [5] was determined as 0.08 nM.
Turning to `COc1cccc(OC)c1-c1ccc(C[C@@H]2N=C([C@@H]3CCN3S(=O)(=O)c3ccccc3)NNC2=O)cc1`, in series [2], the clearance is 86 mL/min/kg. For the same compound, in series [3], the logD was determined as 3.2. In series [4], this compound had a bioavailability of 3.3%. In addition, in series [5], it took 58 nM to reach half-maximal inhibition (IC50).
For the compound `COc1cccc(OC)c1-c1ccc(C[C@H](/N=C(\NCc2ccccn2)[C@@H]2CCN2S(=O)(=O)c2ccccc2)C(=O)O)cc1`, the half-maximal inhibitory concentration (IC50) stood at 35 nM in series [1] and 0.15 nM in series [5]. For the same compound, the pH-dependent lipophilicity (logD) in series [3] is 2.8.
